Measurements taken from US12643889B2, “Synthesis of novel EP4 antagonist and use in cancer and inflammation” (Wuhan Humanwell Innovative Drug Research And Development …, priority 2020, dated 2026).

Tests used:
human EP4 receptor [1] = target: T1, human EP4 receptor (Homo sapiens, UniProt P35408); assay: Assay of calcium current inhibition on EP4 receptor (FLIPR, 293 cells); format: cell-based; set-up: expressed in transfected cells; host or cells: 293 cells; conditions: for IC50: 293 cells overexpressing human EP4, PGE2 at EC80, FLIPR
Procedure: The cells were rapidly thawed in a 37° C. water bath, centrifuged, resuspended, and counted. The cell suspensions were seeded at 20 μL/well in two 384-well plates (20,000 cells/well) and placed in an incubator (a 37° C., 5% CO2) overnight. Preparation of a 2× Fluo-4 Direct™ (Invitrogen, Cat #F10471) loading buffer: 77 mg of probenecid was added to 1 mL of a FLIPR buffer, with a concentration of 250 mM. 10 mL of FLIPR buffer and 0.2 mL of probenecid (250 mM) were added to each tube of Fluo-4 Direct™ crystals (F10471).
One of the cell plates was taken out of the incubator and the medium was removed. 20 μL of an assay buffer and 2× Fluo-4 Direct™ non-wash loading buffer were added to the 384-well cell culture plate to a final volume of 40 μL, and then the culture plate was incubated in an incubator (a 37° C., 5% CO2) for 50 minutes, and then at room temperature for 10 minutes, and then the plate was placed in the FLIPR. 10 μL of the buffer was transferred to the cell plate and the fluorescence signal was read. The agonist PGE2 was formulated as a 10 mM stock in a DMSO solvent and 10 concentration points of the 6× working solution were serially diluted using the buffer. 10 μL of the agonist PGE2 was transferred to the cell plate, the fluorescence signal was read to calculate EC80 value.
The agonist PGE2 was prepared at 6× EC80 concentration and the compound to be tested was formulated as a 10 mM stock solution in the DMSO solvent and 10 concentration points of the 6× compound working solution was serially diluted using the buffer.
Another cell plate was taken to remove media and 20 μL of the assay buffer and 2× Fluo-4 Direct™ non-wash loading buffer were added; the cell plate was incubated in a 37° C., 5% CO2 incubator for 50 minutes and room temperature for 10 minutes and then placed in the FLIPR. 10 μL of the compound working solution, DMSO, and the EP4 full antagonist were transferred to the cell plate and the fluorescence signal was read. […] Inhibition (%)=100−(test group−EP4 full antagonist group)/(DMSO group−EP4 full antagonist group)*100
Compound's IC50 value of EP4 calcium current inhibition was calculated based on the inhibition rate at different concentrations of the compound.

[2] = Rat pharmacokinetic assay; format: in vivo, male SD rats; conditions: male, SD, plasma, rat, intravenous administration 1 mg/kg
Procedure: (§1) In a mouse pharmacokinetic assay, male ICR mice (20 g to 25 g) were selected and fasted overnight. Three mice were selected and intragastrically administered with 5 mg/kg of the corresponding compound. The blood of the mice was collected before the administration and at 15 min, 30 min, 1 h, 2 h, 4 h, 8 h, 24 h after the administration. Another 3 mice were intravenously administered with 1 mg/kg of the corresponding compound, and the blood thereof was collected before the administration and at 15 min, 30 min, 1 h, 2 h, 4 h, 8 h, 24 h after the administration. The blood samples were centrifuged at 6800 g at 2° C. to 8° C. for 6 minutes, and plasma was collected and stored at −80° C. The plasma was taken at respective time point, mixed with 3-5 times the amount of acetonitrile containing internal standard, vortexed for 1 minute, centrifuged at 4° C. for 10 minutes at 13000 rpm, supernatant was added 3 times the amount of water, and the appropriate mixture was taken for LC-MS/MS analysis. The primary pharmacokinetic parameters were analyzed with a WinNonlin 7.0 software, with non-compartmental model.
In a rat pharmacokinetic assay, male SD rats (180 g to 240 g) were selected and fasted overnight. Three rats were intragastrically administered with 5 mg/kg of the corresponding compound. Another 3 rats were intravenously administered with 1 mg/kg of the corresponding compound. The following operations were the same as the mouse pharmacokinetic assay.

[3] = Mouse pharmacokinetic assay; format: in vivo, male ICR mice; conditions: male, ICR, plasma, oral gavage administration 5 mg/kg
Procedure: as §1

[4] = target: T2, recombinant human EP4 receptor membrane protein (Homo sapiens, UniProt P35408); assay: Radioligand binding assay for EP4 receptor ([3H]-PGE2); conditions: [3H]-PGE2 1.5 nM; membrane protein 20 μg/well
T2 construct: expressed in transfected cells; host or cells: membranes of 293 cells overexpressing human EP4 receptor
Procedure: The compounds to be tested and PGE2 were formulated as 10 mM stocks in a DMSO solvent, and then 8 concentration points of 4× working solution were serially diluted using a buffer (50 mM HBSS, 0.1% BSA, 500 mM NaCl). […] Unifilter-96 GF/C filter plate (Perkin Elmer) was soaked with 0.5% BSA, 50 μL per well, for at least 30 min at room temperature. After binding was complete, the reaction mixture was harvested through a GF/C plate using a Perkin Elmer Filtermate Harvester, followed by washing the filter plate and drying the filter plate for 1 hour at 50° C. After drying, the bottom of the filter plate wells was sealed using a Perkin Elmer Unifilter-96 sealing tape, and 50 μL of MicroScint™-20 cocktail (Perkin Elmer) was added to seal the top of the filter plate. The ^3H counts captured on the filter were read using a Perkin Elmer MicroBeta2 Reader.
The IC50 and Ki values of the compounds determined by the radioligand binding assay for EP4 receptor were calculated based on the inhibition rate of the different concentrations of the compounds.

human EP4 receptor [5] = target: T1, human EP4 receptor; assay: Assay for EP4 antagonistic effect (cAMP, PGE2-stimulated CHO stable cell line)
Procedure: After trypsinization, cells were resuspended in a buffer (1×HBSS, 0.1% BSA, 20 mM HEPES, and 500 μM IBMX) and 8000 cells were seeded per well in 384-well plates in a seeding volume of 15 μL. A working solution the compound with a 8× concentration was prepared with an experimental buffer, and then 2.5 μL of the working solution of the compound with 8× concentration was added to the 384-well plate, respectively, and incubated at 37° C. for 30 min. An agonist PGE2 working solution with 8× concentration of (4 nM) was prepared with the experimental buffer and 2.5 μL per well was added to the 384-well plate (the final PGE2 concentration was 0.5 nM) and incubated at 37° C. for 30 min. After the reaction was completed, the amount of cAMP in the cells was quantified according to the method in the instructions of the cAMP test kit (Perkin Elmer, Cat #TRF0263). The antagonistic effects (IC50 value) were calculated for the test compounds.

T1 sequence (P35408 whole entry): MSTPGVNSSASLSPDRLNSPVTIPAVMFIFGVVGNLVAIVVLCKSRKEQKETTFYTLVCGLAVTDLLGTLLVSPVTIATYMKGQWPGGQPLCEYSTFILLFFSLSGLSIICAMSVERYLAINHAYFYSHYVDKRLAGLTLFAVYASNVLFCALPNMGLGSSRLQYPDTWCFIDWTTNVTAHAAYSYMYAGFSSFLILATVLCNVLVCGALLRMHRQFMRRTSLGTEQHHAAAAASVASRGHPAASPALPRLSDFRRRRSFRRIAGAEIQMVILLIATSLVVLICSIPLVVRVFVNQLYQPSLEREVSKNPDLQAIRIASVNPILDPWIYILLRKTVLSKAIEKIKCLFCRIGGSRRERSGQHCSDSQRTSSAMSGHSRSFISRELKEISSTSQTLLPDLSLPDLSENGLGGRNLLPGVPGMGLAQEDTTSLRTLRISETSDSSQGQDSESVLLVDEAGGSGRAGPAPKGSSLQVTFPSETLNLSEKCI
T2 sequence (P35408 whole entry): as above

Compound | IC50 (human EP4 receptor [1]) | IC50 [4] | Ki [4] | other results
Cc1nn(C)c(Oc2cccc(C(C)(F)F)c2)c1C(=O)N[C@@H](C)c1ccc(C(=O)O)cc1 [Compound I-8, (S)-4-(1-(5-(3-(1,1-difluoroethyl)phenoxy)-1,3-dimethyl-1H-pyrazole-4-carboxamido)ethyl)benzoic Acid] | 16.5 nM |  |  | 
C[C@H](NC(=O)c1c(C(F)F)nn(C)c1Oc1cccc(OCC(F)(F)F)c1)c1ccc(C(=O)O)cc1 [Compound I-33, (S)-4-(1-(3-(difluoromethyl)-1-methyl-5-(3-(2,2,2-trifluoroethoxy)phenoxy)-1H-pyrazole-4-carboxamido)ethyl)benzoic Acid] | 12 nM | 31 nM | 17 nM | AUC(0-t) [2]: 4670 ng·h/mL; clearance [2]: 3.67 mL/min/kg; half-life [2]: 541 min; Vd ([2]; read-out: Vz): 2.72 L/kg; AUC(0-t) [3]: 8290 ng·h/mL; Cmax [3]: 2530 ng/mL; Tmax [3]: 19.8 min; half-life [3]: 493 min
CC(c1cccc(Oc2c(C(=O)N[C@@H](C)c3ccc(C(=O)O)cc3)c(C(F)F)nn2C)c1)C(F)(F)F (stereo partly drawn) [Compound I-15, 4-((1S)-1-(3-(difluoromethyl)-1-methyl-5-(3-(1,1,1-trifluoropropan-2-yl)phenoxy)-1H-pyrazole-4-carboxamido)ethyl)benzoic Acid] | 18 nM | 12 nM | 6.6 nM | 
C[C@H](NC(=O)c1c(C(F)F)nn(C)c1Oc1ccc(-c2ccccc2)cc1)c1ccc(C(=O)O)cc1 [Compound I-26, (S)-4-(1-(5-([1,1′-biphenyl]-4-yloxy)-3-(difluoromethyl)-1-methyl-1H-pyrazole-4-carboxamido)ethyl)benzoic Acid] | 8.5 nM |  |  | 
CSc1cccc(Oc2c(C(=O)N[C@@H](C)c3ccc(C(=O)O)cc3)c(C(F)F)nn2C)c1 [Compound I-30, (S)-4-(1-(3-(difluoromethyl)-1-methyl-5-(3-(methylthio)phenoxy)-1H-pyrazole-4-carboxamido)ethyl)benzoic Acid] | 15 nM | 12 nM | 6.6 nM | IC50 (human EP4 receptor [5]): 12 nM
CC(O)c1cc(Oc2c(C(=O)N[C@@H](C)c3ccc(C(=O)O)cc3)c(C(F)F)nn2C)ccc1F (stereo partly drawn) [Compound I-23, 4-((1S)-1-(3-(difluoromethyl)-5-(4-fluoro-3-(1-hydroxyethyl)phenoxy)-1-methyl-1H-pyrazole-4-carboxamido)ethyl)benzoic Acid] |  | 13 nM | 7 nM | 
C[C@H](NC(=O)c1c(C(F)F)nn(C)c1Oc1ccc(F)c(C(C)(F)F)c1)c1ccc(C(=O)O)cc1 [Compound I-10, (S)-4-(1-(5-(3-(1,1-difluoroethyl)-4-fluorophenoxy)-3-(difluoromethyl)-1-methyl-1H-pyrazole-4-carboxamido)ethyl)benzoic Acid] | 14 nM | 4 nM | 2.2 nM | 
CCc1cc(F)cc(Oc2c(C(=O)N[C@@H](C)c3ccc(C(=O)O)cc3)c(C(F)F)nn2C)c1 [Compound I-12, (S)-4-(1-(3-(difluoromethyl)-5-(3-ethyl-5-fluorophenoxy)-1-methyl-1H-pyrazole-4-carboxamido)ethyl)benzoic Acid] | 19 nM |  |  | 
CCc1cc(Oc2c(C(=O)N[C@@H](C)c3ccc(C(=O)O)cc3)c(C(F)F)nn2C)ccc1C [Compound I-17, (S)-4-(1-(3-(difluoromethyl)-5-(3-ethyl-4-methylphenoxy)-1-methyl-1H-pyrazole-4-carboxamido)ethyl)benzoic Acid] | 18 nM |  |  | 
C[C@H](NC(=O)c1c(C(F)F)nn(C)c1Oc1cccc(C2CC2)c1)c1ccc(C(=O)O)cc1 [Compound I-3, (S)-4-(1-(5-(3-cyclopropylphenoxy)-3-(difluoromethyl)-1-methyl-1H-pyrazole-4-carboxamido)ethyl)benzoic Acid] | 3 nM | 9 nM | 4.9 nM | IC50 (human EP4 receptor [5]): 2.8 nM
C[C@H](NC(=O)c1c(C(F)F)nn(C)c1Oc1cccc(S(F)(F)(F)(F)F)c1)c1ccc(C(=O)O)cc1 [Compound I-28, (S)-4-(1-(3-(difluoromethyl)-1-methyl-5-(3-(pentafluoro-λ^6-sulfanyl)phenoxy)-1H-pyrazole-4-carboxamido)ethyl)benzoic Acid] | 8 nM |  |  | IC50 (human EP4 receptor [5]): 5.7 nM
CC(F)c1cccc(Oc2c(C(=O)N[C@@H](C)c3ccc(C(=O)O)cc3)c(C(F)F)nn2C)c1 (stereo partly drawn) [Compound I-13, 4-((1S)-1-(3-(difluoromethyl)-5-(3-(1-fluoroethyl)phenoxy)-1-methyl-1H-pyrazole-4-carboxamido)ethyl)benzoic Acid] | 10 nM |  |  | 
C[C@H](NC(=O)c1c(C(F)F)nn(C)c1Oc1cccc(SC(F)(F)F)c1)c1ccc(C(=O)O)cc1 [Compound I-29, (S)-4-(1-(3-(difluoromethyl)-1-methyl-5-(3-((trifluoromethyl)thio)phenoxy)-1H-pyrazole-4-carboxamido)ethyl)benzoic Acid] |  |  |  | IC50 (human EP4 receptor [5]): 14 nM
CC(C)c1cccc(Oc2c(C(=O)N[C@@H](C)c3ccc(C(=O)O)cc3)c(C(F)F)nn2C)c1 [Compound I-4, (S)-4-(1-(3-(difluoromethyl)-5-(3-isopropylphenoxy)-1-methyl-1H-pyrazole-4-carboxamido)ethyl)benzoic Acid] | 4 nM | 7.4 nM | 4 nM | increase of inhibition effect on the calcium current of EP4 compared with the control compound (human EP4 receptor [1]; compared with the control compound): more than 5 time
Cc1cc(Oc2c(C(=O)N[C@@H](C)c3ccc(C(=O)O)cc3)c(C(F)F)nn2C)cs1 [Compound I-41, (S)-4-(1-(3-(difluoromethyl)-1-methyl-5-((5-methylthiophen-3-yl)oxy)-1H-pyrazole-4-carboxamido)ethyl)benzoic Acid] | 16 nM |  |  | 
CCc1cccc(Oc2c(C(=O)N[C@@H](C)c3ccc(C(=O)O)cc3)c(C)nn2C)c1 [Compound I-9, (S)-4-(1-(5-(3-ethylphenoxy)-1,3-dimethyl-1H-pyrazole-4-carboxamido)ethyl) benzoic Acid] |  |  |  | IC50 (human EP4 receptor [5]): 29 nM
CCc1cc(Oc2c(C(=O)N[C@@H](C)c3ccc(C(=O)O)cc3)c(C(F)F)nn2C)ccc1Cl [Compound I-11, (S)-4-(1-(5-(4-chloro-3-ethylphenoxy)-3-(difluoromethyl)-1-methyl-1H-pyrazole-4-carboxamido)ethyl)benzoic Acid] | 8 nM | 6.8 nM | 3.7 nM | 
